Laboratory results reported in patent US20060134221A1, “Methods for producing block copolymer/amphiphilic particles” (priority 2004, published 2006).

Columns and labels:
[1] = Particle size measurements using photon correlation spectroscopy (mean Z average diameter, polydispersity); type: physicochemical; conditions: for interaction with poloxamer: individual benzalkonium chloride analogs, thermal cycling (Example 1)
Source text: The following examples employ a Malvern 3000 HS Zetasizer to measure particle size. Particles with diameters that range from 1 to 5000 nm, can be measured using the method of photon correlation spectroscopy (PCS). Particles in this size range are in constant random thermal (or Brownian) motion. This motion causes the intensity of light scattered from the particles to form a moving speckle pattern which, with the use of optics and a photomultiplier, can be detected as a change in intensity with time. Large particles move more slowly than small particles, therefore the rate of fluctuation of light scattered from large particles is slower. PCS uses the rate of change of these light fluctuations to determine the size distribution of the particles scattering light. Data is plotted as the auto-correlation function (counts per correlator against delay time). Analysis of this function obtained over time, with a sufficient number of data points, enables the translational diffusion coefficient of the particles undergoing Brownian motion to be calculated. From this coefficient, together with the temperature and viscosity of the suspending liquid, the particle size can be calculated. For aqueous dispersions, the default set-up of the Malvern 3000 HS Zetasizer calculates the viscosity from the temperature. The best single measurement to describe the size of a poloxamer formulation is the mean Z average or the hydrodynamic diameter, which is calculated using cumulants analysis. The polydispersity describes the width of the distribution.
The size of the particles produced was determined using photon correlation spectroscopy. The particle size as reported herein refers to the mean Z average diameter also known as the hydrodynamic diameter. The surface charge of the particles was also determined using micro-electrophoresis.

[2] = Dissolution characteristics of BAK homologs in PBS; type: physicochemical
Source text: Stock solutions of benzyldimethyldodecylammonium chloride (BAK C12, Fluka Chemical Corp., Milwaukee, Wis., cat #53233), benzyldimethyltetradecylammonium chloride (BAK C14, TCI America, Portland, Oreg., cat #A0208), benzyldimethylhexadecyllammonium chloride (BAK C16, TCI America, Portland, Oreg., cat #B0237) and benzyldimethyloctadecylammonium chloride (BAK C18, TCI America, Portland, Oreg., cat #B1297) were made in PBS.

[3] = Example 9, 269 mg in 70 ml sterile water for injection, homogenized/extruded 10,000 psi, 15° C., 5 passes

CCCCCCCCCCCCCCOCC(C[N+](C)(C)CCO)OCCCCCCCCCCCCCC.[Br-] (racemic) [DMRIE, (±)-N-(2-hydroxyethyl)-N,N-dimethyl-2,3-bis(tetradecyloxy)-1-propanaminium bromide]
Particle size [1, 3]: 65 nm | polydispersity [1, 3]: 0.21

CCCCCCCCCCCC[N+](C)(C)Cc1ccccc1.[Cl-] [BAK C12, benzyldimethyldodecylammonium chloride]
interaction with poloxamer [1]: does not interact with poloxamer | formation of cell delivery particles with CRL-1005 and DNA ([1]; thermal cycling method): do not form cell delivery particles

CCCCCCCCCCCCCC[N+](C)(C)Cc1ccccc1.[Cl-] [BAK C14, benzyldimethyltetradecylammonium chloride]
interaction with poloxamer [1]: interact with poloxamer to produce submicron particles with a positive surface charge | Dissolution Temperature ([2]; Concentration in PBS 5 mM): 25 °C

CCCCCCCCCCCCCCCC[N+](C)(C)Cc1ccccc1.[Cl-] [BAK C16, benzyldimethylhexadecyllammonium chloride]
interaction with poloxamer [1]: interact with poloxamer to produce submicron particles with a positive surface charge | Dissolution Temperature ([2]; Concentration in PBS 2 mM): 45 °C | Dissolution Temperature ([2]; Concentration in PBS 5 mM): 45 °C

CCCCCCCCCCCCCCCCCC[N+](C)(C)Cc1ccccc1.[Cl-] [BAK C18, benzyldimethyloctadecylammonium chloride]
formation of small, uniform cell delivery particles with CRL-1005 ([1]; Example 13, thermal cycling method): does not form small nor uniform cell delivery particles | interaction with poloxamer [1]: does interact with poloxamer to produce large micron sized particles with a positive surface charge | formation of cell delivery particles with CRL-1005 and DNA ([1]; thermal cycling method): do not form cell delivery particles | Dissolution Temperature ([2]; Concentration in PBS 1 mM): 45 °C | Dissolution Temperature ([2]; Concentration in PBS 2 mM): 45 °C | Dissolution Temperature ([2]; Concentration in PBS 5 mM): 45 °C
